# Key:
# [1] = tested on: ECHOR (Echinochloa oryzoides, early watergrass); test: In-water applied weed control, transplanted paddy rice, greenhouse (Example II); assay type: in vivo, Echinochloa oryzoides (Ard.) Fritsch
# Experimental: (§1) Weed seeds or nutlets of the desired test plant species were planted in puddled soil (mud) prepared by mixing a shredded, non-sterilized mineral soil (50.5 percent silt, 25.5 percent clay, and 24 percent sand, with a pH of about 7.6 and an organic matter content of about 2.9 percent) and water at a 1:1 volumetric ratio. The prepared mud was dispensed in 365 mL aliquots into 16-ounce (oz.) non-perforated plastic pots with a surface area of 86.59 square centimeters (cm^2) leaving a headspace of 3 centimeters (cm) in each pot. Rice seeds were planted in Sun Gro MetroMix® 306 planting mixture, which typically has a pH of 6.0 to 6.8 and an organic matter content of about 30 percent, in plastic plug trays. Seedlings at the second or third leaf stage of growth were transplanted into 860 mL of mud contained in 32-oz. non-perforated plastic pots with a surface area of 86.59 cm^2 4 days prior to herbicide application. The paddy was created by filling the headspace of the pots with 2.5 to 3 cm of water. When required to ensure good germination and healthy plants, a fungicide treatment and/or other chemical or physical treatment was applied. The plants were grown for 4-22 days in a greenhouse with an approximate 14 h photoperiod which was maintained at about 29′C during the day and 26° C. during the night. Nutrients were added as Osmocote® (19:6:12, N:P:K+minor nutrients) at 2 g per 16-oz. pot and 4 g per 32-oz. pot. Water was added on a regular basis to maintain the paddy flood, and supplemental lighting was provided with overhead metal halide 1000-Watt lamps as necessary. The plants were employed for testing when they reached the first through fourth true leaf stage.
# (§2) Treatments consisted of the acid or esters of 4-amino-3-chloro-5-fluoro-6-(4-chloro-2-fluoro-3-methoxy-phenyl)pyridine-2-carboxylic acid (compound A) each formulated as an SC and various herbicidal components alone and in combination. Forms of compound A were applied on an acid equivalent basis.
# (§3) Other herbicidal components were applied on an active ingredient basis and included acetolactate synthase (ALS)-inhibiting herbicides (sulfonylurea chemical class), azimsulfuron formulated as Gulliver®, bensulfuron-methyl formulated as Londax® 60DF, cyclosulfamuron (technical grade materail), ethoxysulfuron formulated as Sunrice® 15 WDG, flucetosulfuron formulated as Sukedachi® 1KG G, imazosulfuron formulated as Brazzos®, metsulfuron-methyl formulated as Lorate®, nicosulfuron formulated as Accent®, orthosulfamuron formulated as Strada® WG, propyrisulfuron formulated as Zeta One®, and rimsulfuron formulated as Matrix® WG.
# (§4) Treatment requirements for each compound or herbicidal component were calculated based upon the rates being tested, the concentration of active ingredient or acid equivalent in the formulation, an application volume of 2 mL per component per pot, and an application area of 86.59 cm^2 per pot.
# (§5) For formulated compounds, a measured amount was placed in an individual 100 or 200 mL glass vial and was dissolved in a volume of 1.25% (v/v) Agri-Dex® crop oil concentrate to obtain application solutions.
# (§6) For technical grade compounds, a weighed amount was placed in an individual 100 to 200 mL glass vial and was dissolved in a volume of acetone to obtain concentrated stock solutions. […] The concentrated stock solutions obtained were diluted with an equivalent volume of an aqueous mixture containing 2.5% (v/v) crop oil concentrate so that the final application solutions contained 1.25% (v/v) crop oil concentrate.
# (§7) Applications were made by injecting with a pipetter appropriate amounts of the application solutions, individually and sequentially, into the aqueous layer of the paddy. Control plants were treated in the same manner with the solvent blank. Applications were made so that all treated plant material received the same concentrations of acetone and crop oil concentrate. […]
# [2] = tested on: SCPMA (Bolboschoenus maritimus or Schoenoplectus maritimus, sea clubrush); test: as above; assay type: in vivo, Bolboschoenus maritimus (L.) Palla
# Experimental: as §1, §2, §3, §4, §5, §6, §7
# [3] = tested on: LEFCH (Leptochloa chinensis, Chinese sprangletop); test: Postemergence foliar-applied weed control, direct seeded rice, greenhouse (Example I); assay type: in vivo, Leptochloa chinensis (L.) Nees; details: Dinebra chinensis, post-emergence
# Source text: (§8) Seeds or nutlets of the desired test plant species were planted in a soil matrix prepared by mixing a loam or sandy loam soil (e.g., 28.6 percent silt, 18.8 percent clay, and 52.6 percent sand, with a pH of about 5.8 and an organic matter content of about 1.8 percent) and calcareous grit in an 80 to 20 ratio. The soil matrix was contained in plastic pots with a volume of 1 quart and a surface area of 83.6 square centimeters (cm^2). When required to ensure good germination and healthy plants, a fungicide treatment and/or other chemical or physical treatment was applied. The plants were grown for 8-22 days in a greenhouse with an approximate 14 h photoperiod which was maintained at about 29° C. during the day and 26° C. during the night. Nutrients (Peters Excel® 15-5-15 5-Ca 2-Mg and iron chelate) were applied in the irrigation solution as needed and water was added on a regular basis. Supplemental lighting was provided with overhead metal halide 1000-Watt lamps as necessary. The plants were employed for testing when they reached the first through fourth true leaf stage.
# (§9) Treatments consisted of the acid or esters of 4-amino-3-chloro-5-fluoro-6-(4-chloro-2-fluoro-3-methoxy-phenyl)pyridine-2-carboxylic acid (Compound A), each formulated as an SC, and various herbicidal components alone and in combination. Forms of compound A were applied on an acid equivalent basis.
# (§10) Other herbicidal components were applied on an active ingredient basis and included acetolactate synthase (ALS)-inhibiting herbicides (sulfonylurea chemical class) azimsulfuron formulated as Gulliver®, bensulfuron-methyl formulated as Londax® 60DF, cyclosulfamuron (technical material), ethoxysulfuron formulated as Sunrice® 15 WDG, flazasulfuron formulated as Katana®, flucetosulfuron formulated as Sukedachi® 1KG G, foramsulfuron formulated as Option®, imazosulfuron formulated as Brazzos® WG, iodosulfuron-methyl-sodium formulated as Hussar®, metsulfuron-methyl formulated as Lorate®, nicosulfuron formulated as Accent®, orthosulfamuron formulated as Strada® WG, primisulfuron-methyl (technical material), propyrisulfuron formulated as Zeta One®, rimsulfuron formulated as Matrix® WG, sulfometuron-methyl formulated as Oust®, and trifloxysulfuron-sodium formulated as Monument® 75WG.
# (§11) Treatment requirements were calculated based upon the rates being tested, the concentration of active ingredient or acid equivalent in the formulation, and a 12 mL application volume at a rate of 187 L/ha.
# (§12) For treatments comprised of formulated compounds, measured amounts of compounds were placed individually in 25 mL glass vials and diluted in a volume of 1.25% (v/v) Agri-Dex® crop oil concentrated to obtain 12× stock solutions. […] Application solutions were prepared by adding an appropriate amount of each stock solution (e.g., 1 mL) and diluted to the appropriate final concentrations with the addition of 10 mL of an aqueous mixture of 1.25% (v/v) crop oil concentrate so that the final spray solutions contained 1.25+/−0.05% (v/v) Agrcrop oil concentrate.
# (§13) For treatments comprised of formulated and technical compounds, weighed amounts of the technical materials were placed individually in 25 mL glass vials and dissolved in a volume of 97:3 v/v acetone/DMSO to obtain 12× stock solutions, and measured amounts of the formulated compounds were placed individually in 25 mL glass vials and diluted in a volume of 1.25% (v/v) crop oil concentrate to obtain 12× stock solutions. […] Application solutions were prepared by adding an appropriate amount of each stock solution (e.g., 1 mL) and diluted to the appropriate final concentrations with the addition of an appropriate amount of an aqueous mixture of 1.5% (v/v) crop oil concentrate so that the final spray solutions contained 1.25% (v/v) crop oil concentrate. […]
# [4] = tested on: BRAPP (Brachiaria platyphylla, broadleaf signalgrass); test: as above; assay type: in vivo, Brachiaria platyphylla (Griseb.) Nash; details: Urochloa platyphylla, post-emergence, 480 h, 20 DAA, read-out: Visual Weed Control (%) Obs
# Source text: as §8, §9, §10, §11, §12, §13
# [5] = tested on: DIGSA (Digitaria sanguinalis, large crabgrass); test: as above; assay type: in vivo, Digitaria sanguinalis (L.) Scop.
# Source text: as §8, §9, §10, §11, §12, §13
# [6] = tested on: CYPIR (Cyperus iria, rice flatsedge); test: as above; assay type: in vivo, Cyperus iria L.; details: 22 DAA; 12.5 gai/ha
# Source text: as §8, §9, §10, §11, §12, §13
# [7] = Table 28, second set, 25 gai/ha alone
smiles,measurement,setting,value
"COc1cc(OC)nc(NC(=O)NS(=O)(=O)c2c(-c3nnn(C)n3)cnn2C)n1 [Azimsulfuron, N-[[(4,6-dimethoxy-2-pyrimidinyl)amino]carbonyl]-1-methyl-4-(2-methyl-2H-tetrazol-5-yl)-1H-pyrazole-5-sulfonamide, reference compound]",Visual Weed Control (%) - 20 DAA ECHOR Obs,"[1]; Table 28, 2.5 gai/ha alone",0%
same,Visual Weed Control (%) - 20 DAA ECHOR Obs,[1]; [7],60%
same,Visual Weed Control (%) - 20 DAA ECHOR Obs,"[1]; Table 29, 2.5 gai/ha alone",0%
same,Visual Weed Control (%) - 20 DAA ECHOR Obs,"[1]; Table 29, 5 gai/ha alone",20%
same,Visual Weed Control (%) - 20 DAA ECHOR Obs,"[1]; Table 29, 25 gai/ha alone",60%
same,Visual Weed Control (%) - 20 DAA ECHOR Obs,"[1]; Table 30, 25 gai/ha alone",60%
same,Visual Weed Control (%) - 20 DAA SCPMA Obs,"[2]; Table 28, 2.5 gai/ha alone",70%
same,Visual Weed Control (%) - 20 DAA SCPMA Obs,[2]; [7],85%
same,Visual Weed Control (%) - 20 DAA SCPMA Obs,"[2]; Table 29, 2.5 gai/ha alone",70%
same,Visual Weed Control (%) - 20 DAA SCPMA Obs,"[2]; Table 29, 25 gai/ha alone",85%
same,pest or weed control at 3.125 g/ha,"[3]; 480 h, 20 DAA, 3.125 gai/ha, read-out: Visual Weed Control (%) Obs",0%
same,pest or weed control at 6.25 g/ha,"[3]; 480 h, 20 DAA, 6.25 gai/ha, read-out: Visual Weed Control (%) Obs",0%
same,pest or weed control at 3.125 g/ha,[4]; 3.125 gai/ha,0%
same,pest or weed control at 6.25 g/ha,[4]; 6.25 gai/ha,0%
same,pest or weed control at 12.5 g/ha,[4]; 12.5 gai/ha,60%
"COc1cc(OC)nc(NC(=O)NS(=O)(=O)c2cc(NC=O)ccc2C(=O)N(C)C)n1 [Foramsulfuron, 2-[[[[(4,6-dimethoxy-2-pyrimidinyl)amino]carbonyl]amino]sulfonyl]-4-(formylamino)-N,N-dimethylbenzamide]",pest or weed control at 20 g/ha,"[3]; 504 h, 21 DAA, 20 gai/ha, read-out: Visual Weed Control (%) Obs",0%
same,pest or weed control at 40 g/ha,"[3]; 504 h, 21 DAA, 40 gai/ha, read-out: Visual Weed Control (%) Obs",25%
"COC(=O)c1ccccc1S(=O)(=O)NC(=O)Nc1nc(C)cc(C)n1 [Sulfometuron-methyl, methyl 2-[[[[(4,6-dimethyl-2-pyrimidinyl)amino]carbonyl]amino]sulfonyl]benzoate, reference compound]",Visual Weed Control (%) Obs,"[5]; 22 DAA, 35 gai/ha",85%
"COc1cc(OC)nc(NC(=O)NS(=O)(=O)Nc2ccccc2C(=O)C2CC2)n1 [Cyclosulfamuron, N-[[[2-(cyclopropylcarbonyl)phenyl]amino]sulfonyl]-N′-(4,6-dimethoxy-2-pyrimidinyl)urea, reference compound]",Visual Weed Control (%) - 21 DAA SCPMA Obs,"[2]; Table 33, 12.5 gai/ha alone",75%
same,Visual Weed Control (%) Obs,[6],95%
"COC(=O)c1ccccc1S(=O)(=O)NC(=O)Nc1nc(OC(F)F)cc(OC(F)F)n1 [Primisulfuron-methyl, methyl 2-[[[[[4,6-bis(difluoromethoxy)-2-pyrimidinyl]amino]carbonyl]amino]sulfonyl]benzoate]",pest or weed control at 15 g/ha,"[3]; 504 h, read-out: Visual Weed Control (%) Obs, 21 DAA, 15 gai/ha",40%
same,pest or weed control at 30 g/ha,"[3]; 504 h, read-out: Visual Weed Control (%) Obs, 21 DAA, 30 gai/ha",60%
COc1cc(OC)nc(NC(=O)[N-]S(=O)(=O)c2ncccc2OCC(F)(F)F)n1.[Na+] [Trifloxysulfuron-sodium],Visual Weed Control (%) - 21 DAA DIGSA Obs,"[5]; Table 27, foliar-applied, 24 gai/ha alone",65%
